Measurements reported in US7375226B2, “Bi- and tricyclic substituted phenyl methanones” (Hoffman-La Roche Inc., priority 2004, dated 2008).

Biological target: T1, mGlyT-1b (Mus musculus, UniProt P28571)
T1 construct: host or cells: Flp-in-CHO
T1 sequence (P28571 1-651 isoform P28571-2): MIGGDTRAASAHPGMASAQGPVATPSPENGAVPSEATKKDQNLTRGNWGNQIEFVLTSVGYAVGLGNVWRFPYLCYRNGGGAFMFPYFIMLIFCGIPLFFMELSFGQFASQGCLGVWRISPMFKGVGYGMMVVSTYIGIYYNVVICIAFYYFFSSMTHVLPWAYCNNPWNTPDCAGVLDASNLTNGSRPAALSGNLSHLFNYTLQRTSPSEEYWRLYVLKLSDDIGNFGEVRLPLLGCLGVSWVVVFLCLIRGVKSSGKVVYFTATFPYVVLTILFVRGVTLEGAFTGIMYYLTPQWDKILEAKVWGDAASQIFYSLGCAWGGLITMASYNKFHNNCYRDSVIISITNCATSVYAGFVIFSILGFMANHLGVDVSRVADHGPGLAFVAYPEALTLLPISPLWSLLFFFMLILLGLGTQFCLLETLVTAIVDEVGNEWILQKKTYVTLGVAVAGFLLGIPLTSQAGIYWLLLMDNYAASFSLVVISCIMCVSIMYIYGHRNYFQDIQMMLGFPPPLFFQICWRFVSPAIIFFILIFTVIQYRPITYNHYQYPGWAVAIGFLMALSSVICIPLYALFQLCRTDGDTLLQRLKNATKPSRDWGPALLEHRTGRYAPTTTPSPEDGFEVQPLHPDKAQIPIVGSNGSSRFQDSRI
Test: Glycine uptake inhibition assay (mGlyT-1b), [3H]-glycine uptake in Flp-in-CHO cells
Format: cell-based
Settings: Flp-in-CHO cells stably transfected with mGlyT1b cDNA; [3H]-glycine 60 nM and 25 μM non-radioactive glycine; read-out: IC50 (μM) at GlyT-1
Procedure: • DMEM complete medium: Nutrient mixture F-12 (Gibco Life-technologies), fetal bovine serum (FBS) 5%, (Gibco life technologies), Penicillin/Streptomycin 1% (Gibco life technologies), Hygromycin 0.6 mg/ml (Gibco life technologies), Glutamine 1 mM Gibco life technologies). • Uptake buffer (UB): 150 mM NaCl, 10 mM Hepes-Tris, pH 7.4, 1 mM CaCl2, 2.5 mM KCl, 2.5 mM MgSO4, 10 mM (+) D-glucose. • Flp-in™-CHO (Invitrogen Cat n° R758-07)cells stably transfected with mGlyT1b cDNA. • Glycine uptake inhibition assay (mGlyT-1b)
On day 1 mammalian cells, (Flp-in™-CHO), transfected with mGlyT-1b cDNA, were plated at the density of 40,000 cells/well in complete F-12 medium, without hygromycin in 96-well culture plates. On day 2, the medium was aspirated and the cells were washed twice with uptake buffer (UB). The cells were then incubated for 20 min at 22° C. with either (i) no potential competitor, (ii) 10 mM non-radioactive glycine, (iii) a concentration of a potential inhibitor. A range of concentration of the potential inhibitor was used to generate data for calculating the concentration of inhibitor resulting in 50% of the effect (e.g. IC50, the concentration of the competitor inhibiting glycine uptake of 50%). A solution was then immediately added containing [^3H]-glycine 60 nM (11-16 Ci/mmol) and 25 μM non-radioactive glycine. The plates were incubated with gentle shaking and the reaction was stopped by aspiration of the mixture and washing (three times) with ice-cold UB. The cells were lysed with scintillation liquid, shaken 3 hours and the radioactivity in the cells was counted using a scintillation counter.

IC50 [µM]	Compound
0.023	C[C@H](Oc1ccc(S(C)(=O)=O)cc1C(=O)N1CCc2c(sc3ccc(Cl)cc23)C1)C(F)(F)F [Example 22, (6-Chloro-3,4-dihydro-1H-benzo[4,5]thieno[2,3-c]pyridin-2-yl)-[5-methanesulfonyl-2-((S)-2,2,2-trifluoro-1-methyl-ethoxy)-phenyl]-methanone]
0.339	CC(C)Oc1ccc(C#N)cc1C(=O)N1CCc2c(sc3ccc(Cl)cc23)C1 [Example 19, 3-(6-Chloro-3,4-dihydro-1H-benzo[4,5]thieno[2,3-c]pyridine-2-carbonyl)-4-isopropoxy-benzonitrile]
0.187	CS(=O)(=O)c1ccc(N2CCOCC2)c(C(=O)N2CCc3c(sc4ccc(Cl)cc34)C2)c1 [Example 2, (6-Chloro-3,4-dihydro-1H-benzo[4,5]thieno[2,3-c]pyridin-2-yl)-(5-methanesulfonyl-2-morpholin-4-yl-phenyl)-methanone]
0.134	CC(C)Oc1ccc(S(C)(=O)=O)cc1C(=O)N1CCn2c(cc3ccc(Cl)cc32)C1 [Example 9, (7-Chloro-3,4-dihydro-1H-pyrazino[1,2-a]indol-2-yl)-(2-isopropoxy-5-methanesulfonyl-phenyl)-methanone]
0.019	CC(C)Oc1ccc(S(C)(=O)=O)cc1C(=O)N1CCc2c(sc3ccc(Cl)cc23)C1 [Example 1, (6-Chloro-3,4-dihydro-1H-benzo[4,5]thieno[2,3-c]pyridin-2-yl)-(2-isopropoxy-5-methanesulfonyl-phenyl)-methanone]
0.026	CS(=O)(=O)c1ccc(OCC2CC2)c(C(=O)N2CCc3c(sc4ccc(Cl)cc34)C2)c1 [Example 20, (6-Chloro-3,4-dihydro-1H-benzo[4,5]thieno[2,3-c]pyridin-2-yl)-(2-cyclopropylmethoxy-5-methanesulfonyl-phenyl)-methanone]

The remaining lines, values behind:

Compound	IC50 [µM]
CC(C)Oc1ccc(S(C)(=O)=O)cc1C(=O)N1CCn2c(cc3cc(OC(F)(F)F)ccc32)C1 [Example 11, (2-Isopropoxy-5-methanesulfonyl-phenyl)-(8-trifluoromethoxy-3,4-dihydro-1H-pyrazino[1,2-a]indol-2-yl)-methanone]	0.088
CC(C)COc1ccc(S(C)(=O)=O)cc1C(=O)N1CCc2nc(-c3ccc(C(F)(F)F)cc3)sc2C1 [Example 23, (2-Isobutoxy-5-methanesulfonyl-phenyl)-[2-(4-trifluoromethyl-phenyl)-6,7-dihydro-4H-thiazolo[5,4-c]pyridin-5-yl]-methanone]	0.341
CC(C)COc1ccc(S(C)(=O)=O)cc1C(=O)N1CCc2nc(-c3cccs3)sc2C1 [Example 5, (2-Isobutoxy-5-methanesulfonyl-phenyl)-(2-thiophen-2-yl-6,7-dihydro-4H-thiazolo[5,4-c]pyridin-5-yl)-methanone]	0.098
CS(=O)(=O)c1ccc(OC2CCCC2)c(C(=O)N2CCn3c(nc4ccccc43)C2)c1 [Example 15, (2-Cyclopentyloxy-5-methanesulfonyl-phenyl)-(3,4-dihydro-1H-benzo[4,5]imidazo[1,2-a]pyrazin-2-yl)-methanone]	0.367
CC(C)Oc1ccc(S(C)(=O)=O)cc1C(=O)N1CCN2c3ccc(OC(F)(F)F)cc3CC2C1 (racemic) [Example 14, Rac-(2-Isopropoxy-5-methanesulfonyl-phenyl)-(8-trifluoromethoxy-3,4,10,10a-tetrahydro-1H-pyrazino[1,2-a]indol-2-yl)-methanone]	0.154
CC(C)Oc1ccc(S(C)(=O)=O)cc1C(=O)N1CCc2nc(-c3cccs3)sc2C1 [Example 6, (2-Isopropoxy-5-methanesulfonyl-phenyl)-(2-thiophen-2-yl-6,7-dihydro-4H!-thiazolo[5,4-c]pyridin-5-yl)-methanone]	0.407
